Source: patent US20260007717A1, “ANTIMICROBIAL PEPTIDE COMPOUNDS AND METHODS OF USE” (priority 2022, published 2026)
Converted amounts (≈) assume the structure as drawn. Like-named read-outs stand apart in the source and are kept apart here. Positions of bridges follow the written chain, without caps; N, C: chain ends. Non-standard residues stand in square brackets, D forms with d. Residues, ends and D or L forms follow the SMILES beside them. *: point of attachment. Picolinoyl = O=C(c1ccccn1)*; Aib = CC(C)(N)C(=O)O

What was measured:
E. coli = type: cell-based
L. salivarius = type: cell-based
Experimental: (§1) Briefly, P. gingivalis is grown under anaerobic conditions to mid-log phase as per Dominy et al. […] The microtiter plate method outlined by Jansen (ibid) was used to measure MICs. Compounds and bacteria are added to wells of a microtiter plate and grown anaerobically (P. gingivalis) or with CO2 (L. salivarius) for 24 to 72 hours. Growth is measured with light scattering at 592 nm on a plate reader and absorbance plotted against μg/ml of drug in each well.

P. gingivalis = type: cell-based
Experimental: as §1

A. baumannii = settings: cited from earlier work
A. baumannii YQ4 [1] = test: ATP leakage assay; type: cell-based, Acinetobacter baumannii; settings: 1×MIC, 30 min
Experimental: ATP leakage assay was performed using the Enhanced ATP Assay Kit of Beyotime (S0027) according to the manufacturer's manual. Briefly, the log-phase culture of A. baumannii YQ4 was prepared, washed and suspended in PBS as above. This suspension was exposed to 16 μg/ml COG1410, 16 μg/ml polymyxin B and 32 μg/ml tigecycline, respectively and incubated at 37° C. for 30 min. The supernatant was harvested and used for measurement of ATP levels. 100 μl of supernatant was mixed with 100 μl working solution and the chemiluminescence was measured by Biotek Synergy H1 plate reader. Untreated sample was set as negative control. The experiments were performed in triplicate.

A. baumannii YQ4 [2] = settings: COG1410 combined with polymyxin B
Experimental: The checkerboard method was performed to determine the fractional inhibitory concentration (FIC) index between COG1410 and other antimicrobials. Two-fold serial dilutions of antimicrobials and COG1410 were conducted and mixed in the 96-well plate. […] The experiments were conducted twice independently.

[3] = tested on: pan-drug resistant (PDR) Acinetobacter baumannii YQ4; settings: A. baumannii YQ4, LB broth
PDR A. baumannii YQ4 = test: Dynamic time-kill assay in PBS; settings: 30 min
Experimental: For dynamic time-kill assay, the overnight culture of A. baumannii YQ4 was transferred to fresh broth with initial OD600 0.01 and grown to the logarithmic phase. 1 ml culture was harvested, washed twice with 1× phosphate-buffered saline (PBS, pH7.4), containing 8 mM NaH2PO4, 2 mM KH2PO4, 2.6 mM KCl, 136 mM NaCl), and finally suspended in 1 ml PBS with OD600 0.5, which approximately corresponds to 1×10^8 CFU/ml. […] 100 μl aliquot was respectively taken at 0, 5, 10 and 30 min, serially diluted in PBS and plated on LB agar. The CFUs were counted after incubation at 37° C. for 18 h. […] Three independent experiments were performed.

A. baumanii YQ4 = test: Induction of resistance through serial passage; settings: after 55 passages at sub-MIC
Experimental: The initial concentration of the tested compounds was set up as 1/32×MIC and doubled every 10 passages. The 1 ml of bacterial culture was stored in 10% sterile glycerol at −80° C. every 5 passages. The MIC value of collected cultures and original strains were measured through the micro-dilution method.

| Molecule | MIC E. coli (E. coli) | MIC L. salivarius (L. salivarius) | MIC P. gingivalis (P. gingivalis) | other results |
| --- | --- | --- | --- | --- |
| CC(C)C[C@H](NC(=O)[C@H](CC(C)C)NC(=O)[C@H](CCCNC(=N)N)NC(=O)[C@H](CCCCN)NC(=O)C(C)(C)NC(=O)[C@H](CC(C)C)NC(=O)[C@H](CCCCN)NC(=O)[C@H](CCCNC(=N)N)NC(=O)[C@H](CC(C)C)NC(=O)C(C)(C)NC(=O)[C@H](CO)NC(=O)[C@H](C)NC(=O)c1ccccn1)C(N)=O [SEQ ID NO: 2, Picolinyl-AS-aib-LRKL-aib-KRLL-amide] (Picolinoyl-AS[Aib]LRKL[Aib]KRLL-NH2) | 32 µg/mL (≈ 21.7 µM) | 8 µg/mL (≈ 5.44 µM) | 2 to 32 µg/mL |  |
| CC(C)C[C@@H]1NC(=O)[C@H](CC(C)C)NC(=O)[C@H](CCCNC(=N)N)NC(=O)[C@H](CCCCN)NC(=O)C(C)(C)NC(=O)[C@H](CC(C)C)NC(=O)[C@H](CCCCN)NC(=O)[C@H](CCCNC(=N)N)NC(=O)[C@H](CC(C)C)NC(=O)[C@@H](NC(=O)[C@H](CO)NC(=O)[C@H](C)NC(=O)c2ccccn2)CSSC[C@@H](C(N)=O)NC1=O [SEQ ID NO: 3, Picolinyl-AS-C-LRKL-aib-KRLL-C-amide] (Picolinoyl-ASCLRKL[Aib]KRLLC-NH2; disulfide 3-13) |  |  |  | MIC P. gingivalis (P. gingivalis; anaerobic BHI broth): 2 µg/mL (≈ 1.26 µM) |
| CC(=O)N[C@@H](CC(C)C)C(=O)N[C@@H](CC(C)C)C(=O)N[C@@H](CCCNC(=N)N)C(=O)N[C@@H](CCCCN)C(=O)NC(C)(C)C(=O)N[C@@H](CC(C)C)C(=O)N[C@@H](CCCCN)C(=O)N[C@@H](CCCNC(=N)N)C(=O)N[C@@H](CC(C)C)C(=O)NC(C)(C)C(=O)N[C@@H](CO)C(=O)N[C@@H](C)C(N)=O [SEQ ID NO: 4, Acetyl-LLRK-aib-LKRL-aib-SA-CONH2] (Ac-LLRK[Aib]LKRL[Aib]SA-NH2) | 8 µg/mL (≈ 5.68 µM) | 8 µg/mL (≈ 5.68 µM) | 32 µg/mL (≈ 22.7 µM) |  |
| CC(=O)N[C@H](CC(C)C)C(=O)N[C@H](CC(C)C)C(=O)N[C@H](CCCNC(=N)N)C(=O)N[C@H](CCCCN)C(=O)NC(C)(C)C(=O)N[C@H](CC(C)C)C(=O)N[C@H](CCCCN)C(=O)N[C@H](CCCCN)C(=O)N[C@H](CC(C)C)C(=O)NC(C)(C)C(=O)N[C@H](CO)C(=O)N[C@H](C)C(N)=O [SEQ ID NO: 5, Acetyl-llrk-Aib-lkkl-Aib-sa-amide] (Ac-[dL][dL][dR][dK][Aib][dL][dK][dK][dL][Aib][dS][dA]-NH2) | 16 µg/mL (≈ 11.6 µM) |  | 16 µg/mL (≈ 11.6 µM) |  |
| CC(=O)N[C@H](C)C(=O)N[C@H](CO)C(=O)NC(C)(C)C(=O)N[C@H](CC(C)C)C(=O)N[C@H](CCCNC(=N)N)C(=O)N[C@H](CCCCN)C(=O)N[C@H](CC(C)C)C(=O)NC(C)(C)C(=O)N[C@H](CCCCN)C(=O)N[C@H](CCCNC(=N)N)C(=O)N[C@H](CC(C)C)C(=O)N[C@H](CC(C)C)C(N)=O [SEQ ID NO: 6, Acetyl-as-aib-lrkl-aib-krll-amide] (Ac-[dA][dS][Aib][dL][dR][dK][dL][Aib][dK][dR][dL][dL]-NH2) | 8 µg/mL (≈ 5.68 µM) | 8 µg/mL (≈ 5.68 µM) | 8 µg/mL (≈ 5.68 µM) |  |
| CC(=O)N[C@@H](CC(C)C)C(=O)N[C@@H](CC(C)C)C(=O)N[C@@H](CCCNC(=N)N)C(=O)N[C@@H](CCCCN)C(=O)NC(C)(C)C(=O)N[C@@H](CC(C)C)C(=O)N[C@@H](CCCNC(=N)N)C(=O)N[C@@H](CCCCN)C(=O)N[C@@H](CC(C)C)C(=O)NC(C)(C)C(=O)N[C@@H](CO)C(=O)N[C@@H](C)C(=O)N[C@@H](CO)C(=O)NC(C)(C)C(=O)N[C@@H](CC(C)C)C(=O)N[C@@H](CCCNC(=N)N)C(=O)N[C@@H](CCCCN)C(=O)N[C@@H](CC(C)C)C(=O)NC(C)(C)C(=O)N[C@@H](CCCCN)C(=O)N[C@@H](CCCNC(=N)N)C(=O)N[C@@H](CC(C)C)C(=O)N[C@@H](CC(C)C)C(N)=O [SEQ ID NO: 7, Acetyl-LLRK-aib-LRKL-aib-SAS-aib-LRKL-aib-KRLL-CONH2] (Ac-LLRK[Aib]LRKL[Aib]SAS[Aib]LRKL[Aib]KRLL-NH2) | 8 µg/mL (≈ 2.98 µM) | 8 µg/mL (≈ 2.98 µM) | 16 µg/mL (≈ 5.95 µM) |  |
| CC(=O)N[C@@H](CC(C)C)C(=O)N[C@@H](CCCNC(=N)N)C(=O)N[C@H](C(=O)N[C@@H](CCCNC(=N)N)C(=O)N[C@@H](CS)C(=O)N[C@@H](C)C(=O)N[C@@H](CO)C(=O)NC(C)(C)C(=O)N[C@@H](CC(C)C)C(=O)N[C@@H](CCCNC(=N)N)C(=O)N[C@@H](CCCCN)C(=O)N[C@@H](CC(C)C)C(=O)NC(C)(C)C(=O)N[C@@H](CCCCN)C(=O)N[C@@H](CCCNC(=N)N)C(=O)N[C@@H](CC(C)C)C(=O)N[C@@H](CC(C)C)C(N)=O)C(C)C [SEQ ID NO: 8, Acetyl-LRVRCAS-aib-LRKL-aib-KRLL-CONH2] (Ac-LRVRCAS[Aib]LRKL[Aib]KRLL-NH2) | 8 µg/mL (≈ 3.93 µM) | 16 µg/mL (≈ 7.86 µM) | 64 µg/mL (≈ 31.4 µM) |  |
| CC(=O)N[C@@H](CC(C)C)C(=O)N[C@@H](CCCNC(=N)N)C(=O)N[C@H](C(=O)N[C@@H](CCCNC(=N)N)C(=O)N[C@@H](CC(C)C)C(=O)N[C@@H](C)C(=O)N[C@@H](CO)C(=O)NC(C)(C)C(=O)N[C@@H](CC(C)C)C(=O)N[C@@H](CCCCN)C(=O)N[C@@H](CCCCN)C(=O)N[C@@H](CC(C)C)C(=O)NC(C)(C)C(=O)N[C@@H](CCCCN)C(=O)N[C@@H](CCCNC(=N)N)C(=O)N[C@@H](CC(C)C)C(=O)N[C@@H](CC(C)C)C(N)=O)C(C)C [SEQ ID NO: 9, Acetyl-LRVRLAS-aib-LKKL-aib-KRLL-Amide] (Ac-LRVRLAS[Aib]LKKL[Aib]KRLL-NH2) | 4 µg/mL (≈ 1.98 µM) | 4 µg/mL (≈ 1.98 µM) | 8 µg/mL (≈ 3.96 µM) |  |
| CC(=O)N[C@H](CC(C)C)C(=O)N[C@H](CC(C)C)C(=O)N[C@H](CCCNC(=N)N)C(=O)N[C@H](CCCCN)C(=O)NC(C)(C)C(=O)N[C@H](CC(C)C)C(=O)N[C@H](CCCCN)C(=O)N[C@H](CCCNC(=N)N)C(=O)N[C@H](CC(C)C)C(=O)NC(C)(C)C(=O)N[C@H](CO)C(=O)N[C@H](C)C(=O)N[C@H](CC(C)C)C(=O)N[C@H](CCCNC(=N)N)C(=O)N[C@@H](C(=O)N[C@H](CCCNC(=N)N)C(=O)N[C@H](CC(C)C)C(N)=O)C(C)C [SEQ ID NO: 11, Acetyl-llrk-aib-lkrl-aib-salrvrl-amide] (Ac-[dL][dL][dR][dK][Aib][dL][dK][dR][dL][Aib][dS][dA][dL][dR][dV][dR][dL]-NH2) | 4 µg/mL (≈ 1.95 µM) |  |  | MIC L. salivarius (L. salivarius; 5% CO2, BHI broth): 16 µg/mL (≈ 7.82 µM); MIC P. gingivalis (P. gingivalis; anaerobic BHI broth): 8 µg/mL (≈ 3.91 µM) |
| CC(=O)N[C@@H](CC(C)C)C(=O)N[C@@H](CCCNC(=N)N)C(=O)N[C@H](C(=O)N[C@@H](CCCNC(=N)N)C(=O)N[C@@H](CC(C)C)C(=O)N[C@@H](C)C(=O)N[C@@H](CO)C(=O)N[C@@H](Cc1c[nH]cn1)C(=O)N[C@@H](CC(C)C)C(=O)N[C@@H](CCCNC(=N)N)C(=O)N[C@@H](CCCCN)C(=O)N[C@@H](CC(C)C)C(=O)N[C@@H](CCCNC(=N)N)C(=O)N[C@@H](CCCCN)C(=O)N[C@@H](CCCNC(=N)N)C(=O)N[C@@H](CC(C)C)C(=O)N[C@@H](CC(C)C)C(=O)N[C@@H](C)C(=O)N[C@@H](CO)C(=O)NC(C)(C)C(=O)N[C@@H](CC(C)C)C(=O)N[C@@H](CCCNC(=N)N)C(=O)N[C@@H](CCCCN)C(=O)N[C@@H](CC(C)C)C(=O)NC(C)(C)C(=O)N[C@@H](CCCCN)C(=O)N[C@@H](CCCNC(=N)N)C(=O)N[C@@H](CC(C)C)C(=O)N[C@@H](CC(C)C)C(N)=O)C(C)C [SEQ ID NO: 12, Acetyl-LRVRLASHLRKLRKRLLAS-aib-LRKL-aib-KRLL-CONH2] (Ac-LRVRLASHLRKLRKRLLAS[Aib]LRKL[Aib]KRLL-NH2) | 4 µg/mL (≈ 1.14 µM) | 64 µg/mL (≈ 18.2 µM) | 16 µg/mL (≈ 4.55 µM) |  |
| SAAP-148 |  |  |  | LC99.9 (A. baumannii; 50% pooled plasma): 12.8 UM; LC99.9 (A. baumannii; PBS): 1.6 µM |
| polymyxin B [reference compound] |  |  |  | ATP leakage (A. baumannii YQ4 [1]): released more ATP compared to untreated cells; working concentration in the combination (A. baumannii YQ4 [2]): 1 µg/mL; MIC [3]: 16 µg/mL; reduction in CFU (PDR A. baumannii YQ4; 1×MIC): 2 log; reduction in CFU (PDR A. baumannii YQ4; 5×MIC): 4 logs; increase of MIC (A. baumanii YQ4): 64 fold |
